Values after ≈ are worked out from the molar mass of the structure shown.
How the values were obtained:
A549 = assay: Solid tumor cell growth inhibition, MTT, 72 h; type: cell-based; conditions: Homo sapiens
Procedure: (§1) 6000 well-growing human solid tumor cells were obtained and inoculated into wells of a 96-well cell culture plate. The culture medium was DMEM High Glucose cell culture medium containing 10% fetal bovine serum. The plate was placed in a carbon dioxide cell incubator (5% CO2) at 37° C. and incubated for 24 hours. After added with 1-oxo/acylated-14-acylated oridonin derivatives of different concentration and mixed uniformly, the plate was placed in a carbon dioxide cell incubator (5% CO2) at 37° C. and incubated for 72 hours. Then the viable cell concentration was determined by MTT method.

Hep G2 = assay: Solid tumor cell growth inhibition, MTT, 72 h; type: cell-based; conditions: Homo sapiens, HepG2
Procedure: as §1

CaEs-17 = assay: Solid tumor cell growth inhibition, MTT, 72 h; type: cell-based; conditions: Homo sapiens, CaEs17
Procedure: as §1

MG-63 = assay: Solid tumor cell growth inhibition, MTT, 72 h; type: cell-based; conditions: Homo sapiens
Procedure: as §1

RKO = assay: Solid tumor cell growth inhibition, MTT, 72 h; type: cell-based; conditions: Homo sapiens
Procedure: as §1

PC-3 = assay: Solid tumor cell growth inhibition, MTT, 72 h; type: cell-based; conditions: Homo sapiens
Procedure: as §1

PANC-1 = assay: Solid tumor cell growth inhibition, MTT, 72 h; type: cell-based; conditions: Homo sapiens
Procedure: as §1

Becap-37 = assay: Solid tumor cell growth inhibition, MTT, 72 h; type: cell-based; conditions: Homo sapiens
Procedure: as §1

U87-MG = assay: Solid tumor cell growth inhibition, MTT, 72 h; type: cell-based; conditions: Homo sapiens, U-87 MG
Procedure: as §1

SK-OV-3 = assay: Solid tumor cell growth inhibition, MTT, 72 h; type: cell-based; conditions: Homo sapiens, SK-OV-3, 72 h, MTT; for IC50: read-out: IC50 SK-OV-3; for IC90: read-out: IC90 SK-OV-3
Procedure: as §1

RPMI 8226 = assay: Multiple myeloma cell growth inhibition, MTT, 72 h; type: cell-based; conditions: Homo sapiens
Procedure: Multiple myeloma cell lines: RPMI8226 (multiple myeloma), purchased from Fuxiang Bio-tech Co. Ltd., Shanghai, China.
(§2) 6000 well-growing cells were obtained and inoculated into wells of a 96-well cell culture plate. […] On the next day, the 1-oxo/acylated-14-acylated oridonin derivatives of different concentrations were added and mixed uniformly. The plate was placed in a carbon dioxide cell incubator (5% CO2) at 37° C. and incubated for 72 hours. Then the viable cell concentration was determined by MTT method.

Kasumi-1 = assay: Leukemia cell growth inhibition, MTT, 72 h; type: cell-based; conditions: Homo sapiens
Excerpt: (§3) Leukemia cell lines: leukemia cell lines: K562/adr (drug-resistant, chronic myeloid leukemia, CML), NB4 (acute promyelocytic leukemia, AML), Kasumi-1 (acute myeloid leukemia M2 type, AML-M2), Jurkat (acute lymphoblastic leukemia, ALL), all of which were donated by Cancer Research Institute of Zhejiang University, China; and H9 (acute lymphoblastic leukemia, ALL), which was purchased from China Center for Type Culture Collection.
as §2, with “6000 well-growing leukemia cells were” for “6000 well-growing cells were”, “C. and was incubated for” for “C. and incubated for”

K562/ADR = assay: Leukemia cell growth inhibition, MTT, 72 h; type: cell-based; conditions: Homo sapiens
Excerpt: as §3
as §2, with “6000 well-growing leukemia cells were” for “6000 well-growing cells were”, “C. and was incubated for” for “C. and incubated for”

Jurkat = assay: Leukemia cell growth inhibition, MTT, 72 h; type: cell-based, human; conditions: Homo sapiens, Jurkat; 72 h, MTT
Excerpt: as §3
as §2, with “6000 well-growing leukemia cells were” for “6000 well-growing cells were”, “C. and was incubated for” for “C. and incubated for”

H9 = assay: Leukemia cell growth inhibition, MTT, 72 h; type: cell-based, human; conditions: Homo sapiens, H9; 72 h, MTT
Excerpt: as §3
as §2, with “6000 well-growing leukemia cells were” for “6000 well-growing cells were”, “C. and was incubated for” for “C. and incubated for”

NB4 = assay: Leukemia cell growth inhibition, MTT, 72 h; type: cell-based, human; conditions: Homo sapiens, NB-4; 72 h, MTT
Excerpt: as §3
as §2, with “6000 well-growing leukemia cells were” for “6000 well-growing cells were”, “C. and was incubated for” for “C. and incubated for”

CNE = assay: Solid tumor cell growth inhibition, MTT, 72 h; type: cell-based, human; conditions: Homo sapiens, CNE; 72 h, MTT
Procedure: as §1

Hela = assay: Solid tumor cell growth inhibition, MTT, 72 h; type: cell-based, human; conditions: Homo sapiens, HeLa; 72 h, MTT
Procedure: as §1

MGC-803 = assay: Solid tumor cell growth inhibition, MTT, 72 h; type: cell-based, human; conditions: Homo sapiens, MGC-803; 72 h, MTT
Procedure: as §1

Hep-2 = assay: Solid tumor cell growth inhibition, MTT, 72 h; type: cell-based, human; conditions: Homo sapiens, HEp-2; 72 h, MTT
Procedure: as §1

| IC50 (A549) [µg/mL] | IC90 (A549) [µg/mL] | IC50 (Hep G2) [µg/mL] | IC90 (Hep G2) [µg/mL] | IC50 (CaEs-17) [µg/mL] | IC90 (CaEs-17) [µg/mL] | IC50 (MG-63) [µg/mL] | IC90 (MG-63) [µg/mL] | IC50 (RKO) [µg/mL] | IC90 (RKO) [µg/mL] | IC50 (PC-3) [µg/mL] | IC90 (PC-3) [µg/mL] | IC50 (PANC-1) [µg/mL] | IC90 (PANC-1) [µg/mL] | IC50 (Becap-37) [µg/mL] | IC90 (Becap-37) [µg/mL] | IC50 (U87-MG) [µg/mL] | IC90 (U87-MG) [µg/mL] | IC50 (SK-OV-3) [µg/mL] | IC90 (SK-OV-3) [µg/mL] | Structure (SMILES) | also measured |
| --- | --- | --- | --- | --- | --- | --- | --- | --- | --- | --- | --- | --- | --- | --- | --- | --- | --- | --- | --- | --- | --- |
| 2.38 (≈ 4.52 µM) | 5.33 (≈ 10.1 µM) | 0.94 (≈ 1.79 µM) | 5.47 (≈ 10.4 µM) | 0.95 (≈ 1.8 µM) | 3.05 (≈ 5.79 µM) | 0.4 (≈ 0.76 µM) | 0.96 (≈ 1.82 µM) | 0.42 (≈ 0.798 µM) | 0.94 (≈ 1.79 µM) | 1.66 (≈ 3.15 µM) | 3.04 (≈ 5.77 µM) | 1.88 (≈ 3.57 µM) | 9.81 (≈ 18.6 µM) | 0.99 (≈ 1.88 µM) | 3.17 (≈ 6.02 µM) | 0.87 (≈ 1.65 µM) | 2.41 (≈ 4.58 µM) | 1.66 (≈ 3.15 µM) | 3.04 (≈ 5.77 µM) | C=C1C(=O)[C@]23[C@H](OC(=O)c4ccc(OC)c(OC)c4)[C@H]1CC[C@H]2[C@@]12CO[C@@]3(O)[C@@H](O)[C@@H]1C(C)(C)CCC2=O [BS-OR-015] | IC50 (RPMI 8226): 0.3 µg/mL (≈ 0.57 µM); IC90 (RPMI 8226): 1.85 µg/mL (≈ 3.51 µM); IC50 (Kasumi-1): 0.51 µg/mL (≈ 0.969 µM); IC90 (Kasumi-1): 1.15 µg/mL (≈ 2.18 µM); IC50 (K562/ADR): 0.51 µg/mL (≈ 0.969 µM); IC90 (K562/ADR): 1.97 µg/mL (≈ 3.74 µM); IC50 (Jurkat): 0.69 µg/mL (≈ 1.31 µM); IC90 (Jurkat): 2.31 µg/mL (≈ 4.39 µM); IC50 (H9): 0.45 µg/mL (≈ 0.855 µM); IC90 (H9): 1.82 µg/mL (≈ 3.46 µM); IC50 (NB4): 0.11 µg/mL (≈ 0.209 µM); IC90 (NB4): 0.43 µg/mL (≈ 0.817 µM); IC50 (CNE): 1.05 µg/mL (≈ 1.99 µM); IC90 (CNE): 4.05 µg/mL (≈ 7.69 µM); IC50 (Hela): 1.53 µg/mL (≈ 2.91 µM); IC90 (Hela): 3.75 µg/mL (≈ 7.12 µM); IC50 (MGC-803): 0.84 µg/mL (≈ 1.6 µM); IC90 (MGC-803): 4.68 µg/mL (≈ 8.89 µM); IC50 (Hep-2): 1.12 µg/mL (≈ 2.13 µM); IC90 (Hep-2): 5.05 µg/mL (≈ 9.59 µM) |
| 2.93 (≈ 6.81 µM) | 6.29 (≈ 14.6 µM) | 1.61 (≈ 3.74 µM) | 8.04 (≈ 18.7 µM) | 1.32 (≈ 3.07 µM) | 5.89 (≈ 13.7 µM) | 0.47 (≈ 1.09 µM) | 1.8 (≈ 4.18 µM) | 0.6 (≈ 1.39 µM) | 1.91 (≈ 4.44 µM) | 1.99 (≈ 4.62 µM) | 3.92 (≈ 9.11 µM) | 1.96 (≈ 4.55 µM) | 5.76 (≈ 13.4 µM) | 1.13 (≈ 2.62 µM) | 4.58 (≈ 10.6 µM) | 1.24 (≈ 2.88 µM) | 3.64 (≈ 8.46 µM) | 1.99 (≈ 4.62 µM) | 3.92 (≈ 9.11 µM) | C=C1C(=O)[C@]23[C@H](OC(=O)C4CC4)[C@H]1CC[C@H]2[C@@]12CO[C@@]3(O)[C@@H](O)[C@@H]1C(C)(C)CCC2=O [BS-OR-017] | IC50 (RPMI 8226): 0.5 µg/mL (≈ 1.16 µM); IC90 (RPMI 8226): 1.88 µg/mL (≈ 4.37 µM); IC50 (Kasumi-1): 0.69 µg/mL (≈ 1.6 µM); IC90 (Kasumi-1): 1.7 µg/mL (≈ 3.95 µM); IC50 (K562/ADR): 0.52 µg/mL (≈ 1.21 µM); IC90 (K562/ADR): 1.9 µg/mL (≈ 4.41 µM); IC50 (Jurkat): 0.92 µg/mL (≈ 2.14 µM); IC90 (Jurkat): 5.63 µg/mL (≈ 13.1 µM); IC50 (H9): 0.53 µg/mL (≈ 1.23 µM); IC90 (H9): 0.98 µg/mL (≈ 2.28 µM); IC50 (NB4): 0.14 µg/mL (≈ 0.325 µM); IC90 (NB4): 0.82 µg/mL (≈ 1.9 µM); IC50 (CNE): 1.13 µg/mL (≈ 2.62 µM); IC90 (CNE): 4.96 µg/mL (≈ 11.5 µM); IC50 (Hela): 1.35 µg/mL (≈ 3.14 µM); IC90 (Hela): 3.86 µg/mL (≈ 8.97 µM); IC50 (MGC-803): 0.91 µg/mL (≈ 2.11 µM); IC90 (MGC-803): 4.16 µg/mL (≈ 9.66 µM); IC50 (Hep-2): 1.62 µg/mL (≈ 3.76 µM); IC90 (Hep-2): 6.93 µg/mL (≈ 16.1 µM) |
| 1.66 (≈ 3.37 µM) | 4.43 (≈ 8.99 µM) | 0.94 (≈ 1.91 µM) | 14.6 (≈ 29.7 µM) | 0.89 (≈ 1.81 µM) | 5.62 (≈ 11.4 µM) | 0.35 (≈ 0.711 µM) | 0.79 (≈ 1.6 µM) | 0.38 (≈ 0.771 µM) | 0.89 (≈ 1.81 µM) | 1.41 (≈ 2.86 µM) | 3.86 (≈ 7.84 µM) | 1.53 (≈ 3.11 µM) | 9.62 (≈ 19.5 µM) | 0.89 (≈ 1.81 µM) | 8.43 (≈ 17.1 µM) | 0.77 (≈ 1.56 µM) | 2.43 (≈ 4.93 µM) | 1.41 (≈ 2.86 µM) | 3.86 (≈ 7.84 µM) | C=C1C(=O)[C@]23[C@H](OC(=O)/C=C/c4ccccc4)[C@H]1CC[C@H]2[C@@]12CO[C@@]3(O)[C@@H](O)[C@@H]1C(C)(C)CCC2=O [BS-OR-019] | IC50 (RPMI 8226): 0.34 µg/mL (≈ 0.69 µM); IC90 (RPMI 8226): 1.7 µg/mL (≈ 3.45 µM); IC50 (Kasumi-1): 0.58 µg/mL (≈ 1.18 µM); IC90 (Kasumi-1): 1.55 µg/mL (≈ 3.15 µM); IC50 (K562/ADR): 0.43 µg/mL (≈ 0.873 µM); IC90 (K562/ADR): 1.74 µg/mL (≈ 3.53 µM); IC50 (Jurkat): 0.58 µg/mL (≈ 1.18 µM); IC90 (Jurkat): 2.48 µg/mL (≈ 5.03 µM); IC50 (H9): 2.69 µg/mL (≈ 5.46 µM); IC90 (H9): 5.41 µg/mL (≈ 11 µM); IC50 (NB4): 1.02 µg/mL (≈ 2.07 µM); IC90 (NB4): 3.66 µg/mL (≈ 7.43 µM); IC50 (CNE): 7.19 µg/mL (≈ 14.6 µM); IC90 (CNE): > 16 µg/mL; IC50 (Hela): 1.43 µg/mL (≈ 2.9 µM); IC90 (Hela): 3.74 µg/mL (≈ 7.59 µM); IC50 (MGC-803): 4.98 µg/mL (≈ 10.1 µM); IC90 (MGC-803): 12 µg/mL (≈ 24.4 µM); IC50 (Hep-2): 10.7 µg/mL (≈ 21.7 µM); IC90 (Hep-2): > 16 µg/mL |

— patent US9902736B2, “1-oxo/acylation-14-acylated oridonin derivative, preparation method therefor and application thereof” (HANGZHOU BENSHENG PHARMACEUTICAL CO., LTD., priority 2012, dated 2018)
